Experimental data as given in PMC10066365, “Nemacol is a small molecule inhibitor of C. elegans vesicular acetylcholine transporter with anthelmintic potential” (Nature Communications, 2023).
“And” between values parts separate entries of the source, which are not always exact repeats. Equal entries are not always repeated. “Also recorded” adds a separate entry of the source.

Test system: C. elegans
Assay: C. elegans motor phenotype scoring on solid media (Punc/jerky-unc, coiled, paralyzed), wild-type young adults
Type: in vivo, Caenorhabditis elegans
Details: for Fraction Coiled / Fraction Paralyzed / C1 (number of animals scored) / C2 (number of animals scored) / Fraction Coiled, AVERAGES / Fraction Paralyzed, AVERAGES / Fraction Punc, AVERAGES / NP (number of animals scored) / P (number of animals scored) / Punc (number of animals scored) / Fraction Punc / Next Day: Animals alive (moving fine): adults; for Fraction Coiled / Fraction Paralyzed / Fraction Punc: single experiment
[1] = 60uM, one hour, young adults, 20 animals per trial, single replicate counts

## O=[N+]([O-])c1ccc(N2CCN(CC3CC4C=CC3C4)CC2)cc1 (stereo not shown) [Nemacol-3]
30 μM, 90 min
  Fraction Coiled: 0.0
  Fraction Paralyzed: 0.0
30 μM, 120 min
  C1 (number of animals scored): 0
  C2 (number of animals scored): 0
  Fraction Coiled, AVERAGES: 0.0
  Fraction Paralyzed, AVERAGES: 0.0
  Fraction Punc, AVERAGES: 0.0741
  NP (number of animals scored): 17 and 16
  P (number of animals scored): 0
  Punc (number of animals scored): 1 and 2
  Fraction Coiled: 0.0
  Fraction Paralyzed: 0.0
  Fraction Punc: 0.0556 and 0.111
30 μM, 240 min
  C1 (number of animals scored): 0
  C2 (number of animals scored): 0
  Fraction Coiled, AVERAGES: 0.0
  Fraction Paralyzed, AVERAGES: 0.0
  Fraction Punc, AVERAGES: 0.0
  NP (number of animals scored): 18
  P (number of animals scored): 0
  Punc (number of animals scored): 0
  Fraction Coiled: 0.0
  Fraction Paralyzed: 0.0
  Fraction Punc: 0.0
30 μM, 360 min
  C1 (number of animals scored): 0
  C2 (number of animals scored): 0
  Fraction Coiled, AVERAGES: 0.0
  Fraction Paralyzed, AVERAGES: 0.0
  Fraction Punc, AVERAGES: 0.0
  NP (number of animals scored): 18
  P (number of animals scored): 0
  Punc (number of animals scored): 0
  Fraction Coiled: 0.0
  Fraction Paralyzed: 0.0
  Fraction Punc: 0.0
30 μM
  Next Day: Animals alive (moving fine): alive, recovered; also recorded: alive, recoveed
60 μM, 30 min
  C1 (number of animals scored): 0
  C2 (number of animals scored): 0
  Fraction Coiled, AVERAGES: 0.0
  Fraction Paralyzed, AVERAGES: 0.0
  Fraction Punc, AVERAGES: 0.667
  NP (number of animals scored): 8 and 6 and 4
  P (number of animals scored): 0
  Punc (number of animals scored): 10 and 12 and 14
  Fraction Coiled: 0.0
  Fraction Paralyzed: 0.0
  Fraction Punc: 0.556 and 0.667 and 0.8
60 μM, 60 min
  C1 (number of animals scored): 0
  C2 (number of animals scored): 0
  Fraction Coiled, AVERAGES: 0.0
  Fraction Paralyzed, AVERAGES: 0.0
  Fraction Punc, AVERAGES: 0.741
  NP (number of animals scored): 5 and 3 and 6
  P (number of animals scored): 0
  Punc (number of animals scored): 13 and 15 and 12
  Fraction Coiled: 0.0
  Fraction Paralyzed: 0.0
  Fraction Punc: 0.8 and 0.667
60 μM, 90 min
  C1 (number of animals scored): 0
  C2 (number of animals scored): 0
  Fraction Coiled, AVERAGES: 0.0
  Fraction Paralyzed, AVERAGES: 0.0
  Fraction Punc, AVERAGES: 0.463
  P (number of animals scored): 0
  Fraction Coiled: 0.0
  Fraction Paralyzed: 0.0
60 μM, 120 min
  C1 (number of animals scored): 0
  C2 (number of animals scored): 0
  Fraction Coiled, AVERAGES: 0.0
  Fraction Paralyzed, AVERAGES: 0.0
  Fraction Punc, AVERAGES: 0.259
  NP (number of animals scored): 10 and 15
  P (number of animals scored): 0
  Fraction Coiled: 0.0
  Fraction Paralyzed: 0.0
60 μM, 240 min
  C1 (number of animals scored): 0
  C2 (number of animals scored): 0
  Fraction Coiled, AVERAGES: 0.0
  Fraction Paralyzed, AVERAGES: 0.0
  Fraction Punc, AVERAGES: 0.037
  NP (number of animals scored): 18 and 16
  P (number of animals scored): 0
  Fraction Coiled: 0.0
  Fraction Paralyzed: 0.0
  Fraction Punc: 0.0
60 μM, 360 min
  C1 (number of animals scored): 0
  C2 (number of animals scored): 0
  Fraction Coiled, AVERAGES: 0.0
  Fraction Paralyzed, AVERAGES: 0.0
  Fraction Punc, AVERAGES: 0.0
  NP (number of animals scored): 18
  P (number of animals scored): 0
  Punc (number of animals scored): 0
  Fraction Coiled: 0.0
  Fraction Paralyzed: 0.0
  Fraction Punc: 0.0
60 μM
  Next Day: Animals alive (moving fine): alive, recovered; also recorded: alive recovered
60uM, one hour, mean of three biological replicates
  any phene, mean % fraction of young adults exhibiting any phenotype (coiled, jerky-Unc or paralyzed): 95.8333%
[1]
  atypical locomotion (number of animals): 5 and 8 and 9 and 7 and 0 and 4
  coiled (number of animals): 8 and 6 and 10
  no phene (number of animals): 0 and 2 and 3
  paralyzed (number of animals): 7 and 6 and 1 and 4 and 10 and 8
Caenorhabditis elegans, 1 h, Fig. 1, dose-response at 60 min, wild-type young adults, +/- 95% CI, read-out: EC50
  EC50: 24.5 ± 6.1 µM
